For 23 molecules, Activity results are on record in ChEMBL document CHEMBL5260832, “Hepatoprotective natural triterpenoids” (Eur J Med Chem, 2018).

Type in all cases: functional
For one experiment, the system named is L02. The experiment can be described thus: Hepatoprotective activity against D-GaIN-induced toxicity in human HL7702 cells assessed as inhibition of cell survival rate at 10 uM relative to control.
The next experiment relates to Hepatocyte. The experiment can be described thus: Hepatoprotective activity against D-GaIN/LPS induced liver injury in rat hepatocytes assessed as cell death at 10 to 500 uM relative to control. The conditions noted are these: dose 10-500 µM.
In the next experiment the test system is Mus musculus. Briefly: Hepatoprotective activity against D-GaIN/CCl4 induced liver injury mouse model assessed as reduction in GPT level at 30 microg/kg, iv relative to control. The arrangement: scale not given: the % may be the effect or the level left. Particulars: dose 30 µg/kg.

On to `C=C(C)[C@@H]1CC[C@]2(C(=O)O[C@@H]3O[C@H](C(=O)OCC)[C@@H](O)[C@H](O)[C@H]3O[C@@H]3OC[C@@H](O)[C@H](O)[C@H]3O)CC[C@]3(C)[C@H](CC[C@@H]4[C@@]5(C)CC[C@H](O)C(C)(C)[C@@H]5CC[C@]43C)[C@@H]12`, for which, in the experiment with L02, the Activity was 48.3%.
As for `C[C@@H]1O[C@@H](O[C@H]2[C@H](O[C@H]3[C@H](O[C@H]4CC[C@@]5(C)[C@@H](CC[C@]6(C)[C@@H]5CC=C5[C@@H]7CC(C)(C)[C@H](O[C@@H]8O[C@H](CO)[C@@H](O)[C@H](O)[C@H]8O)C[C@]7(C)CC[C@]56C)[C@@]4(C)CO)O[C@H](C(=O)O)[C@@H](O)[C@@H]3O)O[C@H](CO)[C@H](O)[C@@H]2O)[C@H](O)[C@H](O)[C@H]1O`, the Activity in the experiment on Hepatocyte amounted to 0%.
Turning to `CC(C)=CCC[C@](C)(O)[C@H]1CC[C@]2(C)[C@@H]1[C@H](O)C[C@@H]1[C@@]3(C)CC[C@H](O[C@@H]4O[C@H](CO)[C@@H](O)[C@H](O)[C@H]4O)C(C)(C)[C@@H]3CC[C@]12C` [GINSENOSIDE RH2], the Activity in the experiment with Mus musculus stood at 31%.
For `CCCCOC(=O)[C@H]1O[C@@H](O[C@H]2CC[C@]3(C)[C@H]4CC=C5[C@@H]6CC(C)(C)CC[C@]6(C(=O)O[C@@H]6O[C@H](CO)[C@@H](O)[C@H](O)[C@H]6O[C@@H]6OC[C@@H](O)[C@H](O)[C@H]6O)CC[C@@]5(C)[C@]4(C)CC[C@H]3C2(C)C)[C@H](O[C@@H]2O[C@H](CO)[C@@H](O)[C@H](O)[C@H]2O[C@@H]2O[C@@H](C)[C@H](O)[C@@H](O)[C@H]2O)[C@@H](O)[C@@H]1O`, in the experiment with L02, the Activity is reported as 54.7%.
On the same count and under the same terms, for `CCCCOC(=O)[C@H]1O[C@@H](O[C@H]2CC[C@]3(C)[C@H]4CC=C5[C@@H]6[C@@H](C)[C@H](C)CC[C@]6(C(=O)O[C@@H]6O[C@H](CO)[C@@H](O[C@@H]7O[C@@H](C)[C@H](O)[C@@H](O)[C@H]7O)[C@H](O)[C@H]6O)CC[C@@]5(C)[C@]4(C)CC[C@H]3C2(C)C)[C@H](O[C@@H]2O[C@H](CO)[C@@H](O)[C@H](O)[C@H]2O[C@@H]2O[C@@H](C)[C@H](O)[C@@H](O)[C@H]2O)[C@@H](O)[C@@H]1O` the value was 32.2%.
Take `CCOC(=O)[C@H]1O[C@@H](O[C@H]2CC[C@]3(C)[C@H]4CC=C5[C@@H]6CC(C)(C)CC[C@]6(C(=O)O[C@@H]6O[C@H](CO)[C@@H](O[C@@H]7O[C@@H](C)[C@H](O)[C@@H](O)[C@H]7O)[C@H](O)[C@H]6O)CC[C@@]5(C)[C@]4(C)CC[C@H]3C2(C)C)[C@H](O[C@@H]2O[C@H](CO)[C@@H](O)[C@H](O)[C@H]2O[C@@H]2O[C@@H](C)[C@H](O)[C@@H](O)[C@H]2O)[C@@H](O)[C@@H]1O`: the Activity with L02 worked out at 81.4%.
On to `C[C@@H]1O[C@@H](O[C@H]2[C@H](O[C@H]3[C@H](O[C@H]4CC[C@@]5(C)[C@@H](CC[C@]6(C)[C@@H]5CC=C5[C@@H]7C[C@@](C)(CO[C@@H]8O[C@H](CO)[C@@H](O)[C@H](O)[C@H]8O)C[C@@H](O)[C@]7(C)CC[C@]56C)[C@@]4(C)CO)O[C@H](C(=O)O)[C@@H](O)[C@@H]3O)O[C@H](CO)[C@H](O)[C@@H]2O)[C@H](O)[C@H](O)[C@H]1O`, for which the Activity in the experiment on Hepatocyte was found to be 0%.
Consider `C[C@@H]1O[C@@H](O[C@H]2[C@H](O[C@H]3[C@H](O[C@H]4CC[C@@]5(C)[C@@H](CC[C@]6(C)[C@@H]5CC=C5[C@@H]7CC(C)(C)C[C@@H](O)[C@]7(C)CC[C@]56C)[C@@]4(C)CO)O[C@H](C(=O)O)[C@@H](O)[C@@H]3O)O[C@H](CO)[C@H](O)[C@@H]2O)[C@H](O)[C@H](O)[C@H]1O` [SOYASAPONIN I], for which, in the experiment with Hepatocyte, the Activity is listed as 0%.
With `C[C@@H]1O[C@@H](O[C@H]2[C@H](O[C@H]3[C@H](O[C@H]4CC[C@]5(C)[C@H]6CC=C7[C@@H]8CC(C)(C)CC[C@]8(C(=O)O)CC[C@@]7(C)[C@]6(C)CC[C@H]5C4(C)C)O[C@H](C(=O)O)[C@@H](O)[C@@H]3O)O[C@H](CO)[C@@H](O)[C@@H]2O)[C@H](O)[C@H](O)[C@H]1O`, the Activity with L02 was found to be 56.8%.
`C[C@@H]1O[C@@H](O[C@H]2[C@H](O[C@H]3[C@H](O[C@H]4CC[C@@]5(C)[C@@H](CC[C@]6(C)[C@@H]5CC=C5[C@@H]7CC(C)(C)CC(=O)[C@]7(C)CC[C@]56C)[C@@]4(C)CO)O[C@H](C(=O)O)[C@@H](O)[C@@H]3O)O[C@H](CO)[C@H](O)[C@@H]2O)[C@H](O)[C@H](O)[C@H]1O`: the Activity in the experiment on Hepatocyte was determined as 0%.
Same read-out and setting: as for `C[C@@H]1O[C@@H](O[C@H]2[C@H](O[C@H]3[C@H](O[C@H]4CC[C@@]5(C)[C@@H](CC[C@]6(C)[C@@H]5CC=C5[C@@H]7CC(C)(C)C[C@@H](O)[C@]7(C)CC[C@]56C)[C@@]4(C)CO)O[C@H](C(=O)O)[C@@H](O)[C@@H]3O)OC[C@@H](O)[C@@H]2O)[C@H](O)[C@H](O)[C@H]1O`, the figure is 0%.
`CC1(C)C[C@H]2C3=CC[C@@H]4[C@@]5(C)C=CC(=O)C(C)(C)[C@@H]5CC[C@@]4(C)[C@]3(C)CC[C@@]2(C(=O)O)C[C@@H]1O`: the Activity with L02 was determined as 76.8%.
Still for that read-out and setting: as for `COC(=O)c1cc(OC)c2c(c1-c1c(CO)cc(OC)c3c1OCO3)OCO2` [BICYCLOL], the figure is 26.2%; as for `C=C(C)[C@@H]1CC[C@]2(C(=O)O)CC[C@]3(C)[C@H](CC[C@@H]4[C@@]5(C)CC[C@H](O[C@@H]6O[C@H](C(=O)OCC)[C@@H](O)[C@H](O)[C@H]6O[C@@H]6OC[C@@H](O)[C@H](O)[C@H]6O)C(C)(C)[C@@H]5CC[C@]43C)[C@@H]12`, 32.8%.
`C[C@@H]1O[C@@H](O[C@H]2[C@H](O[C@H]3[C@H](O[C@H]4CC[C@@]5(C)[C@@H](CC[C@]6(C)[C@@H]5CC=C5[C@@H]7CC(C)(C)[C@@H](O[C@@H]8OC[C@@H](O)[C@H](O)[C@H]8O)[C@@H](O)[C@]7(C)CC[C@]56C)[C@@]4(C)CO)O[C@H](C(=O)O)[C@@H](O)[C@@H]3O)O[C@H](CO)[C@H](O)[C@@H]2O)[C@H](O)[C@H](O)[C@H]1O`: the Activity in the experiment with Hepatocyte came to 0%.
In the case of `CCOC(=O)[C@H]1O[C@@H](O[C@H]2CC[C@]3(C)[C@H]4CC=C5[C@@H]6CC(C)(C)CC[C@]6(C(=O)O[C@@H]6O[C@H](CO)[C@@H](O)[C@H](O)[C@H]6O[C@@H]6O[C@H](COC(C)=O)[C@@H](O)[C@H](O)[C@H]6O)CC[C@@]5(C)[C@]4(C)CC[C@H]3C2(C)C)[C@H](O[C@@H]2O[C@H](CO)[C@@H](O)[C@H](O)[C@H]2O[C@@H]2O[C@@H](C)[C@H](O)[C@@H](O)[C@H]2O)[C@@H](O)[C@@H]1O`, the Activity in the experiment on L02 stood at 75.7%.
As to `C[C@@H]1O[C@@H](O[C@H]2[C@H](O[C@H]3[C@H](O[C@H]4CC[C@@]5(C)[C@@H](CC[C@]6(C)[C@@H]5CC=C5[C@@H]7CC(C)(C)C[C@@H](O[C@@H]8O[C@H](CO)[C@@H](O)[C@H](O)[C@H]8O)[C@]7(C)CC[C@]56C)[C@@]4(C)CO)O[C@H](C(=O)O)[C@@H](O)[C@@H]3O)O[C@H](CO)[C@H](O)[C@@H]2O)[C@H](O)[C@H](O)[C@H]1O`, the Activity in the experiment on Hepatocyte amounted to 0%.
On to `CC1(C)CC[C@]2(C(=O)O)CC[C@]3(C)C(=CC[C@@H]4[C@@]5(C)CC[C@H](O)[C@@](C)(CO)[C@@H]5CC[C@]43C)[C@@H]2C1` [HEDERAGENIN], for which, in the experiment with L02, the Activity is on record as 62.4%.
Still for that read-out and setting: as for `CCCCOC(=O)[C@H]1O[C@@H](O[C@H]2CC[C@]3(C)[C@H]4CC=C5[C@@H]6CC(C)(C)CC[C@]6(C(=O)O[C@@H]6O[C@H](CO)[C@@H](O)[C@H](O)[C@H]6O)CC[C@@]5(C)[C@]4(C)CC[C@H]3C2(C)C)[C@H](O[C@@H]2O[C@H](CO)[C@@H](O)[C@H](O)[C@H]2O)[C@@H](O)[C@@H]1O[C@@H]1OC[C@H](O)[C@H](O)[C@H]1O`, the figure is 48.3%.
As to `C[C@@H]1O[C@@H](O[C@H]2[C@H](O[C@H]3[C@H](O[C@H]4CC[C@@]5(C)[C@@H](CC[C@]6(C)[C@@H]5CC=C5[C@@H]7CC(C)(C)C[C@@H](O[C@@H]8O[C@@H](C)[C@H](O)[C@@H](O)[C@H]8O)[C@]7(C)CC[C@]56C)[C@@]4(C)CO)O[C@H](C(=O)O)[C@@H](O)[C@@H]3O)O[C@H](CO)[C@H](O)[C@@H]2O)[C@H](O)[C@H](O)[C@H]1O`, the Activity with Hepatocyte is given as 0%.
Regarding `C[C@@H]1O[C@@H](O[C@H]2[C@H](O[C@H]3[C@H](O[C@H]4CC[C@]5(C)[C@H]6CC=C7[C@@H]8CC(C)(C)CC[C@]8(C(=O)O[C@@H]8O[C@H](CO)[C@@H](O)[C@H](O)[C@H]8O)CC[C@@]7(C)[C@]6(C)CC[C@H]5C4(C)C)O[C@H](C(=O)O)[C@@H](O)[C@@H]3O)O[C@H](CO)[C@@H](O)[C@@H]2O)[C@H](O)[C@H](O)[C@H]1O`, the Activity in the experiment on L02 is 87.3%.
As for `C[C@@H]1O[C@@H](O[C@H]2[C@H](O[C@H]3[C@H](O[C@H]4CC[C@@]5(C)[C@@H](CC[C@]6(C)[C@@H]5CC=C5[C@@H]7CC(C)(C)[C@H](O[C@@H]8O[C@H](CO)[C@@H](O)[C@H](O)[C@H]8O)C[C@]7(C)CC[C@]56C)[C@@]4(C)CO)O[C@H](C(=O)O)[C@@H](O)[C@@H]3O)OC[C@@H](O)[C@@H]2O)[C@H](O)[C@H](O)[C@H]1O`, the Activity with Hepatocyte was 0%.
For the molecule `CCOC(=O)[C@H]1O[C@@H](O[C@H]2CC[C@]3(C)[C@H]4CC=C5[C@@H]6CC(C)(C)CC[C@]6(C(=O)O)CC[C@@]5(C)[C@]4(C)CC[C@H]3C2(C)C)[C@H](O[C@@H]2O[C@H](CO)[C@@H](O)[C@H](O)[C@H]2O[C@@H]2OC[C@@H](O)[C@H](O)[C@H]2O)[C@@H](O)[C@@H]1O`, in the experiment on L02, the Activity worked out at 44.8%.
